# According to patent US20150246136A1, “NOVEL BINDER-DRUG CONJUGATES (ADCs) AND USE OF SAME” (priority 2011, published 2015):
# Square brackets hold non-standard residues; d marks the D form. Peptide text beside a SMILES is read from it. Dolaproine = CO[C@@H]([C@@H]1CCCN1)[C@@H](C)C(=O)O; Dil = CC[C@H](C)[C@H](NC)[C@@H](CC(=O)O)OC; NMeV = CN[C@H](C(=O)O)C(C)C
# Assays:
# [1] = Pharmacokinetics in the HT29 tumor model, non-transfected tumors; assay type: in vivo; conditions: after i.v. 16 mg/kg Example 60
# Procedure: C-2.3 Pharmacokinetics in the HT29 Tumor Model with Mesothelin-Transfected HT29 Cells and Non-Transfected Cells
# After i.v. administration of 16 mg/kg from Example 60, the plasma and tumor concentrations of Example 60 were measured along with potentially occurring metabolites such as those of Example 119, for example. […] In the animals with non-transfected tumors, the exposure in the plasma in Example 119 was identical to the exposure in the plasma of animals with transfected tumors. […] This is indicative of a definite targeting effect in the tumor in the presence of the antigen.
# Analysis for Quantitation of the Compound from Example 119 […]
# In workup of a tumor, it was mixed with a four-fold amount of methanol. […] After agitating again, the tumor sample was ready for measurement.
# Finally, the measurement of both matrix samples was performed on the HPLC coupled atmospheric pressure ionization/tandem mass spectrometer by means of turbo ion spray interface (TISP) on an API4000 instrument from the company SCIEX. The following m/z transitions were measured: […]
# For the calibration, plasma samples with concentrations of 0.5-2000 μg/L were mixed. The limit of quantitation (LOQ) was 2 μg/L. The linear range was from 2 to 1000 μg/L. […]
# [2] = test system: various carcinoma cell lines; conditions: cited from earlier work
structure (smiles),measurement,setting,value
"CC[C@H](C)[C@@H]([C@@H](CC(=O)N1CCC[C@H]1[C@H](OC)[C@@H](C)C(=O)N[C@@]1(C(=O)N2CCCCO2)C[C@@H]1c1ccccc1)OC)N(C)C(=O)[C@@H](NC(=O)[C@H](C(C)C)N(C)CCCC(=O)NNC(=O)CCCCCN1C(=O)CC(SC[C@H](N)C(=O)O)C1=O)C(C)C (stereo partly drawn) [Example 119, N-(4-{2-[6-(3-{[(2R)-2-amino-2-carboxyethyl]sulfanyl}-2,5-dioxopyrrolidin-1-yl)hexanoyl]hydrazino}-4-oxobutyl)-N-methyl-L-valyl-N-[(3R,4S,5S)-3-methoxy-1-{(2S)-2-[(1R,2R)-1-methoxy-2-methyl-3-{[(1S,2R)-1-(1,2-oxazinan-2-ylcarbonyl)-2-phenylcyclopropyl]amino}-3-oxopropyl]pyrrolidin-1-yl}-5-methyl-1-oxoheptan-4-yl]-N-methyl-L-valinamide]",AUC in the tumor versus transfected animals,[1],approx. eight times lower
same,exposure in the plasma versus animals with transfected tumors,[1],identical
"CC[C@H](C)[C@@H]([C@@H](CC(=O)N1CCC[C@H]1[C@H](OC)[C@@H](C)C(=O)N[C@@H](Cc1ccccc1)C(=O)O)OC)N(C)C(=O)[C@@H](NC(=O)[C@@H](NC)C(C)C)C(C)C [MMAF, Monomethylauristatin F] (H-[NMeV]V[Dil][Dolaproine]F-OH)",antiproliferative effect,[2]; in comparison with MMAE,only a moderate antiproliferative effect
"CC[C@H](C)[C@@H]([C@@H](CC(=O)N1CCC[C@H]1[C@H](OC)[C@@H](C)C(=O)N[C@@H](Cc1ccccc1)C(=O)OC)OC)N(C)C(=O)[C@@H](NC(=O)[C@@H](NC)C(C)C)C(C)C [MMAF-OMe, Monomethylauristatin F-methylester] (H-[NMeV]V[Dil][Dolaproine]F-OMe)",in vitro cytotoxicity,"[2]; in comparison with MMAF, various carcinoma cell lines",greater by several orders of magnitude
